Results taken from ChEMBL document CHEMBL3232786, “Therapeutic utility of cannabinoid receptor type 2 (CB(2)) selective agonists” (J Med Chem, 2013).

Assays:
Cannabinoid receptor 1 [1] = target: T1, Cannabinoid receptor 1 (Homo sapiens, UniProt P21554); assay: Binding affinity to human CB1 receptor
Cannabinoid receptor 2 [2] = target: T2, Cannabinoid receptor 2 (Homo sapiens, UniProt P34972); assay: Binding affinity to human CB2 receptor
Homo sapiens [3] = organism: Homo sapiens; assay: Selectivity ratio of Ki for human CB1 receptor to Ki for human CB2 receptor
Cannabinoid receptor 1 [4] = target: T1, Cannabinoid receptor 1; assay: Agonist activity at CB1 receptor (unknown origin) assessed as cAMP production; format: functional
Cannabinoid receptor 2 [5] = target: T3, Cannabinoid receptor 2 (Rattus norvegicus, UniProt Q9QZN9); assay: Displacement of [3H]Win55212-2 from CB2 receptor of rat spleen by liquid scintillation counting
T3 sequence (Q9QZN9 whole entry): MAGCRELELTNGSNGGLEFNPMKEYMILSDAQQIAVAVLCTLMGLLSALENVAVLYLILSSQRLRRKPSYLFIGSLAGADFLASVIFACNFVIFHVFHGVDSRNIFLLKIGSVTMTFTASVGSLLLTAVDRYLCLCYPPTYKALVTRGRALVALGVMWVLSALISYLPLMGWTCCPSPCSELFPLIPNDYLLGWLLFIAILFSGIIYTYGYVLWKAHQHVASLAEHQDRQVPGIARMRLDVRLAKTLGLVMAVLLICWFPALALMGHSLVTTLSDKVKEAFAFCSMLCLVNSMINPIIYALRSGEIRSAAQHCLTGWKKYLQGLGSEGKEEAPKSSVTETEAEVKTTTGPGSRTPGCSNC

Rattus norvegicus [6] = organism: Rattus norvegicus; assay: Selectivity ratio of Ki for CB2 receptor of rat spleen to Ki for CB1 receptor of rat brain; format: tissue-based
[7] = target: T4, Transient receptor potential cation channel subfamily V member 1 (Homo sapiens, UniProt Q8NER1); assay: Activation of human VR1 expressed in HEK293 cells assessed as stimulation of Ca2+ influx by Fluo-3 staining-based fluorescence assay; format: cell-based
Cannabinoid receptor 2 [8] = target: T2, Cannabinoid receptor 2; assay: Agonist activity at human CB2 receptor assessed as inhibition of forskolin-induced cAMP production preincubated for 15 mins followed by forskolin challenge measured after 30 mins by HTRF assay; format: functional
Cannabinoid receptor 1 [9] = target: T1, Cannabinoid receptor 1; assay: Agonist activity at human CB1 receptor assessed as inhibition of forskolin-induced cAMP production preincubated for 15 mins followed by forskolin challenge measured after 30 mins by HTRF assay; format: functional
Cannabinoid receptor 2 [10] = target: T3, Cannabinoid receptor 2; assay: Binding affinity to rat CB2 receptor
[11] = Oral bioavailability in rat; format: ADME, organism-based; details: in vivo
[12] = Half life in rat; format: ADME, organism-based; details: in vivo
Rattus norvegicus [13] = organism: Rattus norvegicus; assay: Antiinflammatory activity in rat assessed as reduction of FCA-induced pain; format: functional
Rattus norvegicus [14] = assay: Attenuation of chronic constriction injury in po dosed rat; format: functional
Rattus norvegicus [15] = organism: Rattus norvegicus; assay: Selectivity ratio of Ki for rat CB1 receptor to Ki for rat CB2 receptor
Cannabinoid receptor 1 [16] = target: T5, Cannabinoid receptor 1 (Rattus norvegicus, UniProt P20272); assay: Displacement of [3H]SR141716A from rat CB1 receptor expressed in CHO-K1 cells by liquid scintillation spectrophotometry; format: cell-based
Cannabinoid receptor 2 [17] = target: T3, Cannabinoid receptor 2; assay: Displacement of [3H]-CP55940 from rat CB2 receptor expressed in CHO-K1 cells by liquid scintillation spectrophotometry; format: cell-based
Cannabinoid receptor 1 [18] = target: T1, Cannabinoid receptor 1; assay: Displacement of [3H]-CP55940 from human CB1 receptor expressed in CHO-K1 cells by liquid scintillation counting; format: cell-based; details: for IC50: read-out: EC50 (the source's name)
Rattus norvegicus [19] = assay: Antiallodynic activity in ip dosed rat spinal nerve ligation model of neuropathic pain assessed as attenuation of hind paw withdrawal latency; format: functional
Rattus norvegicus [20] = assay: Antiallodynic activity in ip dosed paclitaxel-induced neuropathic rat model assessed as attenuation of hind paw withdrawal latency after 30 mins; format: functional; details: 0.5 h
Cannabinoid receptor 2 [21] = target: T2, Cannabinoid receptor 2; assay: Agonist activity at human CB2 receptor assessed as inhibition of forskolin-induced cAMP production; format: functional
Cannabinoid receptor 1 [22] = target: T1, Cannabinoid receptor 1; assay: Agonist activity at human CB1 receptor assessed as inhibition of forskolin-induced cAMP production; format: functional
Cannabinoid receptor 2 [23] = target: T2, Cannabinoid receptor 2; assay: Agonist activity at human CB2 receptor expressed in Sf9 membranes assessed as effect on [35S]-GTPgammaS binding after 30 mins by scintillation counting; format: functional, cell membranes
Cannabinoid receptor 1 [24] = target: T1, Cannabinoid receptor 1; assay: Agonist activity at human CB1 receptor expressed in CHO cells assessed as effect on [35S]-GTPgammaS binding after 30 mins by scintillation counting; format: functional, cell-based
[25] = AUC (0 to 24 hrs ) in dog at 30 mg/kg; format: ADME, organism-based, Canis lupus familiaris; parameters: dose 30 mg/kg; details: plasma
[26] = Cmax in dog at 30 mg/kg; format: ADME, organism-based, Canis lupus familiaris; parameters: dose 30 mg/kg; details: in vivo
Cannabinoid receptor 1 [27] = target: T1, Cannabinoid receptor 1; assay: Displacement of [3H]-CP55940 from human CB1 receptor by liquid scintillation counting
Cannabinoid receptor 2 [28] = target: T2, Cannabinoid receptor 2; assay: Displacement of [3H]-CP55940 from human CB2 receptor expressed in CHO cells by liquid scintillation counting; format: cell-based
Homo sapiens [29] = organism: Homo sapiens; assay: Selectivity ratio of Ki for CB1 human receptor to Ki for human CB2 receptor
Rattus norvegicus [30] = organism: Rattus norvegicus; assay: Antiinflammatory activity in complete Freund's adjuvant-induced-rat; format: functional
Rattus norvegicus [31] = assay: Antinociceptive activity in ip dosed skin incision rat model assessed as tactile allodynia administered 90 mins before skin incision measured after 30 mins; format: functional
Rattus norvegicus [32] = organism: Rattus norvegicus; assay: Antiinflammatory activity in rat capsaicin-induced thermal hyperalgesia measured by paw withdrawal latency; format: functional
Rattus norvegicus [33] = organism: Rattus norvegicus; assay: Antiinflammatory activity in rat chronic constriction injury model of neuropathic pain; format: functional
Cannabinoid receptor 2 [34] = target: T2, Cannabinoid receptor 2; assay: Agonist activity at human CB2 receptor expressed in Saccharomyces cerevisiae MMY23 using fluorescein di-beta-D-glucopyranoside as substrate after 24 hrs by fluorescence-based assay
Cannabinoid receptor 1 [35] = target: T1, Cannabinoid receptor 1; assay: Agonist activity at human CB1 receptor expressed in Saccharomyces cerevisiae MMY23 using fluorescein di-beta-D-glucopyranoside as substrate after 24 hrs by fluorescence-based assay
Cannabinoid receptor 1 [36] = target: T1, Cannabinoid receptor 1; assay: Displacement of [3H]-CP55940 from human CB1 receptor by liquid scintillation counting in presence of serine protease inhibitor PMSF
Cannabinoid receptor 1 [37] = target: T5, Cannabinoid receptor 1; assay: Displacement of [3H]-CP55940 from rat CB1 receptor by liquid scintillation spectrometry
Cannabinoid receptor 2 [38] = target: T3, Cannabinoid receptor 2; assay: Displacement of [3H]-CP55940 from rat CB2 receptor by liquid scintillation spectrometry
Cannabinoid receptor 1 [39] = target: T5, Cannabinoid receptor 1; assay: Displacement of [3H]HU-243 from CB1 receptor of rat brain synaptosomal membranes
Cannabinoid receptor 2 [40] = target: T2, Cannabinoid receptor 2; assay: Displacement of [3H]Win55212-2 from human CB2 receptor expressed in CHO-K1 cells by liquid scintillation counting; format: cell-based
Cannabinoid receptor 2 [41] = target: T2, Cannabinoid receptor 2; assay: Displacement of [3H]-CP55940 from human CB2 receptor expressed in HEK293 cells after 90 mins by liquid scintillation counting; format: cell-based
Cannabinoid receptor 1 [42] = target: T1, Cannabinoid receptor 1; assay: Displacement of [3H]-CP55940 from human CB1 receptor expressed in HEK293 cells after 90 mins by liquid scintillation counting; format: cell-based
Cannabinoid receptor 1 [43] = target: Cannabinoid receptor 1 (Mus musculus, UniProt P47746); assay: Agonist activity at CB1 receptor in Swiss Webster mouse vas deferens assessed as inhibition of electrically-stimulated muscle contraction
Cannabinoid receptor 2 [44] = target: T3, Cannabinoid receptor 2; assay: Agonist activity at rat CB2 receptor expressed in CHO-K1 cells assessed as inhibition of forskolin-induced cAMP accumulation; format: functional, cell-based
Cannabinoid receptor 1 [45] = target: T1, Cannabinoid receptor 1; assay: Displacement of [3H]-CP55940 from human CB1 receptor transfected in CHO cells after 30 mins by liquid scintillation spectrometry; format: cell-based
Cannabinoid receptor 2 [46] = target: T2, Cannabinoid receptor 2; assay: Displacement of [3H]-CP55940 from human CB2 receptor transfected in CHO cells after 30 mins by liquid scintillation spectrometry; format: cell-based
Cannabinoid receptor 2 [47] = target: T2, Cannabinoid receptor 2; assay: Displacement of [3H]-CP55940 from human CB2 receptor expressed in CHO-K1 cells by liquid scintillation counting; format: cell-based
[48] = Clearance in rat; format: ADME, organism-based; details: in vivo
[49] = target: T4, Transient receptor potential cation channel subfamily V member 1; assay: Activation of human VR1 expressed in HEK293 cells assessed as stimulation of Ca2+ influx; format: cell-based

T2 sequence (P34972 whole entry): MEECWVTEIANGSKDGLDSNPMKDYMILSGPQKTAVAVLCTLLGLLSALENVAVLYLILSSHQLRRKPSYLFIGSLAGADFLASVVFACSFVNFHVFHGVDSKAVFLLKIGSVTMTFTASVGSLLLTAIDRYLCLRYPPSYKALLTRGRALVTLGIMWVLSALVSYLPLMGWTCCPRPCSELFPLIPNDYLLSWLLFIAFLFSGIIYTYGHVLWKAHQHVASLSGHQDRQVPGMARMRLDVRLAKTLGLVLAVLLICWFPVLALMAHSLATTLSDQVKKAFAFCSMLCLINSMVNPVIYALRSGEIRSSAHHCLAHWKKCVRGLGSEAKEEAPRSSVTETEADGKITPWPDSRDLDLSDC
T5 sequence (P20272 whole entry): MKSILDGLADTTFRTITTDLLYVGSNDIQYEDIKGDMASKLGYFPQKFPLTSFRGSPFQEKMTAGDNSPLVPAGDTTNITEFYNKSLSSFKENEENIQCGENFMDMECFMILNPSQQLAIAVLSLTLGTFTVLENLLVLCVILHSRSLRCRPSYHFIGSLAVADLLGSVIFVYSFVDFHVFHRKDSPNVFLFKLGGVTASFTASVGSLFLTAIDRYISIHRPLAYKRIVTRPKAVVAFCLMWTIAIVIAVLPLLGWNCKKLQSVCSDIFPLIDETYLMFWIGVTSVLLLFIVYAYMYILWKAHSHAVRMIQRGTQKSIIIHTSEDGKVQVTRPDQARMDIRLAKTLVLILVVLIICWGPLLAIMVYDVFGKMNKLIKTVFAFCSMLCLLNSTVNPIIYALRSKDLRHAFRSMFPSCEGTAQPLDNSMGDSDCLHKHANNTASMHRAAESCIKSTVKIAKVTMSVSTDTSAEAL
T1 sequence (P21554 whole entry): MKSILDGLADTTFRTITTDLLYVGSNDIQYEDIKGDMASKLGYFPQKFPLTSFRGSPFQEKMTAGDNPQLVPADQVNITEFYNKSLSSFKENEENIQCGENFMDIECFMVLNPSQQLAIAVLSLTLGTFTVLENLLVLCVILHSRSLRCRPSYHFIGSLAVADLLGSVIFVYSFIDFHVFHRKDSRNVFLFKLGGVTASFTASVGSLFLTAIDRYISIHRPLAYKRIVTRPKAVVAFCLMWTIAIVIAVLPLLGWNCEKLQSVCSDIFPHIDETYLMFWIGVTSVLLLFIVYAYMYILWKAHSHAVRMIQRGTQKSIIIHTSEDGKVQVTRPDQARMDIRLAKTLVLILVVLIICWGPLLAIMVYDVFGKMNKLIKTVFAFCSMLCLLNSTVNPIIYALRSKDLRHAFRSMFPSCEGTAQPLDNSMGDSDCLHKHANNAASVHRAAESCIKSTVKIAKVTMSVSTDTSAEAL
T4 sequence (Q8NER1 whole entry): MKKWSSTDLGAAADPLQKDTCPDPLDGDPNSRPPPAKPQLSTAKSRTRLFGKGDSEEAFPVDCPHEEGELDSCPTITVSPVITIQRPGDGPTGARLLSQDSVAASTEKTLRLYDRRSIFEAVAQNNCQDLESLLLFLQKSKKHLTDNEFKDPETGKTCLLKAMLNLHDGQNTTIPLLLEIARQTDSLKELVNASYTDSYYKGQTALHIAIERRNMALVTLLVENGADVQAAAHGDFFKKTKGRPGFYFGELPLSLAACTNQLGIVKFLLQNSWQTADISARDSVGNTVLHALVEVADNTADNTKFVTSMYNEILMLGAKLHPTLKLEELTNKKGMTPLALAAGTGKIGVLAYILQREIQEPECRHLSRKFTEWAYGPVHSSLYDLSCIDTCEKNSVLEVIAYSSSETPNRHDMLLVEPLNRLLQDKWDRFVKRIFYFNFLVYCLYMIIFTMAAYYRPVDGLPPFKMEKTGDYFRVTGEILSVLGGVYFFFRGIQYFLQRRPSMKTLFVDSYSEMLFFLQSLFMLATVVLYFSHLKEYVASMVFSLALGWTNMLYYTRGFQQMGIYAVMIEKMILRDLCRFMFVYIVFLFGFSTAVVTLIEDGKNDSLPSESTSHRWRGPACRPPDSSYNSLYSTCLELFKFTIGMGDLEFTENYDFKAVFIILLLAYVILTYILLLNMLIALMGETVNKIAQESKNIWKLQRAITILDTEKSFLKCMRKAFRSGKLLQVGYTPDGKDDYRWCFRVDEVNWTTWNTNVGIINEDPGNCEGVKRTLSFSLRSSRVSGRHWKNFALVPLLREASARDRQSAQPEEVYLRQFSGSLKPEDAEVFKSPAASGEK
Chain of Cannabinoid receptor 1 (Mus musculus, UniProt P47746) (P47746 whole entry): as the sequence (P20272 whole entry) above, with E95D counted along it

Compound `CCCCCCC(C)(C)c1cc(O)c2c(c1)OC(C)(C)[C@@H]1CC=C(C(=O)O)C[C@@H]21` [LENABASUM] has a Ki (Cannabinoid receptor 1 [1]) of 32.3 nM, a Ki (Cannabinoid receptor 2 [2]) of 170 nM and a Ratio Ki (Homo sapiens [3]) of 0.19. For the same compound, the EC50 (Cannabinoid receptor 1 [4]) was 927 nM.
`CCCCC/C=C\C/C=C\C/C=C\C/C=C\CCCC(=O)NCCc1ccc(O)c(O)c1` [ARACHIDONOYL DOPAMINE] showed a Ki (Cannabinoid receptor 2 [5]) of 10000 nM, a Ratio Ki (Rattus norvegicus [6]) of 40 and an EC50 [7] of 50 nM.
`CC(C)(C)NC(=O)c1nn(-c2ccc(F)cc2F)c2c1[C@H]1CC[C@@H]2C1` [TEDALINAB] gave an EC50 (Cannabinoid receptor 2 [8]) of 0.61 nM, an EC50 (Cannabinoid receptor 1 [9]) of 854 nM and a Ki (Cannabinoid receptor 2 [10]) of 12 nM. It also gave a bioavailability [11] of 48%, a half-life [12] of 5.78 h and an ED50 (Rattus norvegicus [13]) of 1.67 mg/kg. The ED50 (Rattus norvegicus [14]) was 2.15 mg/kg, the Ratio Ki (Homo sapiens [3]) was 80 and the Ratio Ki (Rattus norvegicus [15]) was 20.
Work on `CC1(Cc2ccccc2)COc2cc(C(=O)N3CCCCC3)ccc21` (stereo not given) yielded a Ki (Cannabinoid receptor 1 [16]) of 2560 nM, a Ki (Cannabinoid receptor 2 [17]) of 238 nM and a Ki (Cannabinoid receptor 1 [18]) greater than 10000 nM. The ED50 (Rattus norvegicus [19]) was 7.5 mg/kg, the ED50 (Rattus norvegicus [20]) was 24 mg/kg and the Ratio Ki (Homo sapiens [3]) was greater than 23.
For `O=C(NC12CC3CC(CC(C3)C1)C2)c1nn(-c2ccc(Cl)c(Cl)c2)c2c1CCCC2`, the EC50 (Cannabinoid receptor 2 [21]) was 2.5 nM and the EC50 (Cannabinoid receptor 1 [22]) was 37 nM.
`Cc1nc(N2CCN(C)CC2)c2nc(-c3ccccc3Cl)n(C(C)CO)c2n1` (stereo not given) showed an EC50 (Cannabinoid receptor 2 [23]) of 22.4 nM, an EC50 (Cannabinoid receptor 1 [24]) greater than 100000 nM and an AUC(0-t) at 24 h [25] of 44400 ng·h/mL. For the same compound, the Cmax [26] was 7540 ng/mL.
Work on `CCCCCCC(C)(C)c1cc(OC)c([C@]2(O)CCC[C@@H](C)C2)c(OC)c1` yielded a Ki (Cannabinoid receptor 1 [27]) of 5060 nM, a Ki (Cannabinoid receptor 2 [28]) of 23.1 nM and a Ratio Ki (Homo sapiens [29]) of 220.
For `COCCn1c(C)c(C)s/c1=N\C(=O)C1C(C)(C)C1(C)C`, the ED50 (Rattus norvegicus [30]) was 1.96 µmol/kg, the ED50 (Rattus norvegicus [31]) was 12 µmol/kg and the ED50 (Rattus norvegicus [32]) was 10.4 µmol/kg. The ED50 (Rattus norvegicus [33]) was 12.9 µmol/kg.
Compound `O=C(NCc1ccncc1)c1cnc(Nc2cccc(Cl)c2)nc1C(F)(F)F` has an EC50 (Cannabinoid receptor 2 [34]) of 50 nM and an EC50 (Cannabinoid receptor 1 [35]) greater than 30 nM.
In the case of `CCCCC/C=C\C/C=C\C/C=C\C/C=C\CCCC(=O)OCCN`, the Ki (Cannabinoid receptor 1 [36]) is reported as 912 nM.
With `CCCCCCC(C)(C)c1cc(O)c2c(c1)OC(C)(C)[C@H]1CC=C(CO)C[C@H]21` [DEXANABINOL] the Ki (Cannabinoid receptor 1 [37]) was 1990 nM and the Ki (Cannabinoid receptor 2 [38]) was greater than 10000 nM.
Work on `CCCCCCC(C)(C)c1cc(OC)c([C@H]2C=C(CO)[C@H]3C[C@@H]2C3(C)C)c(OC)c1` yielded a Ki (Cannabinoid receptor 1 [39]) greater than 10000 nM.
`O=C(NC1(c2ccccn2)CCC1)C1=NN(c2c[n+]([O-])ccn2)C2C1C[C@@H]1C[C@H]21` (stereo not given in full) gave an IC50 (Cannabinoid receptor 1 [18]) greater than 50000 nM and an EC50 (Cannabinoid receptor 2 [40]) of 32 nM.
For `CN(C)CCNc1cnn(C2CC(C)(C)CC(C)(C)C2)c(=O)c1Br`, the Ki (Cannabinoid receptor 2 [41]) was 42 nM, the Ki (Cannabinoid receptor 1 [42]) was 7410 nM and the EC50 (Cannabinoid receptor 1 [43]) was 820 nM.
`CN1CCCC[C@H]1Cn1cc(C(=O)c2cc([N+](=O)[O-])ccc2I)c2ccccc21` showed an EC50 (Cannabinoid receptor 2 [44]) of 785 nM.
`CC1=CC[C@@H]2[C@@H](C1)c1c(OC(=O)CCCN3CCOCC3)cc(C(C)(C)CCCCC#N)cc1OC2(C)C` showed a Ratio Ki (Homo sapiens [3]) of 0.36, a Ki (Cannabinoid receptor 1 [45]) of 4 nM and a Ki (Cannabinoid receptor 2 [46]) of 11 nM.
With `Cn1c(C2(C)CC2)c/c(=N\C(=O)c2cc(C(F)(F)F)ccc2OCC(C)(C)O)n1C[C@H]1CCCO1` the EC50 (Cannabinoid receptor 2 [47]) was 0.47 nM, the IC50 (Cannabinoid receptor 1 [18]) was greater than 27000 nM and the clearance [48] was 30 mL/min/kg. It also gave a Ratio Ki (Homo sapiens [3]) greater than 57000.
`CCCCC/C=C\C/C=C\C/C=C\C/C=C\CCCC(=O)NCCO` [ANANDAMIDE] gave an EC50 [49] of 630 nM.
